# Source: patent US11261453B2, “Cells expressing apolipoprotein E and uses thereof” (Whitehead Institute for Biomedical Research, priority 2014, dated 2022)
# How the values were obtained:
# [1] = test system: Ste3 endocytosis to the vacuole; test: Ste3-mKate2 endocytosis assay, fluorescence microscopy; assay type: cell-based, Saccharomyces cerevisiae; details: 6-8 hours of induction with galactose, FIG. 13
# Source text: The effect of ApoE on endocytosis in yeast was further analyzed using a Ste3-mKate2 assay. Ste3 is a yeast G-protein coupled receptor (GPCR) that natively undergoes endocytosis from the cell surface to the vacuole. When clathrin-mediated endocytosis is disrupted, Ste3 trafficking can be disrupted as well.
# The trafficking of Ste3 was observed using fluorescence microscopy by overexpressing a fluorescently-tagged (mKate2) version of Ste3 from a pAG423 galactose-inducible plasmid. The ApoE4 hitox strain described above was transformed with the pAG423-Ste3-mKate2 plasmid. In addition, yeast strains as described in Example 4 harboring expression constructs encoding human neurodegenerative disease-associated proteins alpha-synuclein (α-syn intox) or Aβ (Kar2ss-Aβ strain described in Treusch, S., et al., Science. (2011), 334:1241-5) were also transformed with the pAG423-Ste3-mKate2 plasmid. A strain transformed with a Gal-GFP plasmid served as a negative control. […] (FIG. 13).
# ApoE4-mediated toxicity [2] = test: Compound test in ApoE4 hitox yeast strain (PDR1 and PDR3 deleted), optical density at A600 after 24 hours; assay type: cell-based, Saccharomyces cerevisiae; details: A600, FIG. 10
# Procedure: An ApoE4 hitox strain harboring 3-4 copies of the ApoE4 construct and with the drug-pump transcription factors PDR1 and PDR 3 deleted was used in this experiment. Cells were grown in raffinose; cells were diluted into galactose medium (to initiate expression of the expression construct). Test compounds were added to the cultures at various concentrations ranging from 0.25 μM to 32.0 μM; cells were grown for 24 hours after addition of the compounds, and the optical densities were then read at A600.
# ApoE4-mediated toxicity [3] = details: known from other experiments; cited from earlier work
Compound,effect on Ste3 endocytosis [1],ability to reduce ApoE4-mediated toxicity (ApoE4-mediated toxicity [2]; 0.25 μM to 32.0 μM),concentrations at which ApoE4-mediated toxicity is reduced (ApoE4-mediated toxicity [2]),toxicity of the compound itself to yeast (ApoE4-mediated toxicity [3])
Aβ: human amyloid beta expressed in yeast (Kar2ss-Aβ strain),disruption of Ste3 endocytosis,–,–,–
Oc1c(I)cc(Cl)c2cccnc12 [clioquinol],–,able to reduce ApoE4-mediated toxicity,below 1.5 μM,becomes toxic to yeast at high concentrations
